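Results reflect a 48-hour exposure of cells in 96-well plates to compound at five concentrations. GI50 = concentration required for 50% inhibition of growth. At the TGI there is no net growth.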
What was measured:
Assay in all cases: NCI tumour cell line growth inhibition, 48 h
786-0 renal = tested on: 786-0 renal
A498 renal = tested on: A498 renal
A549 NSCLC = tested on: A549 NSCLC
ACHN renal = tested on: ACHN renal
BT-549 breast = tested on: BT-549 breast
CAKI-1 renal = tested on: CAKI-1 renal
CCRF-CEM leukemia = tested on: CCRF-CEM leukemia
COLO 205 colon = tested on: COLO 205 colon
DU-145 prostate = tested on: DU-145 prostate
EKVX NSCLC = tested on: EKVX NSCLC
HCC-2998 colon = tested on: HCC-2998 colon
HCT-116 colon = tested on: HCT-116 colon
HCT-15 colon = tested on: HCT-15 colon
HL-60(TB) leukemia = tested on: HL-60(TB) leukemia
HOP-62 NSCLC = tested on: HOP-62 NSCLC
HOP-92 NSCLC = tested on: HOP-92 NSCLC
HS 578T breast = tested on: HS 578T breast
HT29 colon = tested on: HT29 colon
IGROV1 ovarian = tested on: IGROV1 ovarian
K-562 leukemia = tested on: K-562 leukemia
KM12 colon = tested on: KM12 colon
LOX IMVI melanoma = tested on: LOX IMVI melanoma
M14 melanoma = tested on: M14 melanoma
MALME-3M melanoma = tested on: MALME-3M melanoma
MCF7 breast = tested on: MCF7 breast
MDA-MB-231 breast = tested on: MDA-MB-231 breast
MDA-MB-435 = tested on: MDA-MB-435
MOLT-4 leukemia = tested on: MOLT-4 leukemia
NCI-H226 lung = tested on: NCI-H226 lung
NCI-H23 lung = tested on: NCI-H23 lung
NCI-H460 lung = tested on: NCI-H460 lung
NCI-H522 lung = tested on: NCI-H522 lung
OVCAR-3 ovarian = tested on: OVCAR-3 ovarian
OVCAR-4 ovarian = tested on: OVCAR-4 ovarian
OVCAR-5 ovarian = tested on: OVCAR-5 ovarian
OVCAR-8 ovarian = tested on: OVCAR-8 ovarian
PC-3 prostate = tested on: PC-3 prostate
RPMI-8226 leukemia = tested on: RPMI-8226 leukemia
RXF 393 renal = tested on: RXF 393 renal
SF-268 CNS = tested on: SF-268 CNS
SF-295 CNS = tested on: SF-295 CNS
SF-539 CNS = tested on: SF-539 CNS
SK-MEL-2 melanoma = tested on: SK-MEL-2 melanoma
SK-MEL-28 melanoma = tested on: SK-MEL-28 melanoma
SK-MEL-5 melanoma = tested on: SK-MEL-5 melanoma
SK-OV-3 ovarian = tested on: SK-OV-3 ovarian
SN12C renal = tested on: SN12C renal
SNB-19 CNS = tested on: SNB-19 CNS
SNB-75 CNS = tested on: SNB-75 CNS
SR leukemia = tested on: SR leukemia
SW-620 colon = tested on: SW-620 colon
T-47D breast = tested on: T-47D breast
TK-10 renal = tested on: TK-10 renal
U251 CNS = tested on: U251 CNS
UACC-257 melanoma = tested on: UACC-257 melanoma
UACC-62 melanoma = tested on: UACC-62 melanoma
UO-31 renal = tested on: UO-31 renal

CC(C)OC(=O)c1ccc2[nH]c(O)c(C(=Nc3ccc(N(C)C(=O)CN4CCN(C)CC4)cc3)c3ccccc3)c2c1
GI50 (786-0 renal): 327 nM
TGI (786-0 renal): 1970 nM
GI50 (A498 renal): 188 nM
TGI (A498 renal): 1000 nM
GI50 (A549 NSCLC): 389 nM
TGI (A549 NSCLC): 2180 nM
GI50 (ACHN renal): 332 nM
TGI (ACHN renal): 1400 nM
GI50 (BT-549 breast): 1280 nM
TGI (BT-549 breast): 2680 nM
GI50 (CAKI-1 renal): 95.2 nM
TGI (CAKI-1 renal): 1120 nM
GI50 (CCRF-CEM leukemia): 371 nM
TGI (CCRF-CEM leukemia): 3330 nM
GI50 (COLO 205 colon): 285 nM
TGI (COLO 205 colon): 1410 nM
GI50 (DU-145 prostate): 408 nM
TGI (DU-145 prostate): 1630 nM
GI50 (EKVX NSCLC): 1110 nM
TGI (EKVX NSCLC): 2490 nM
GI50 (HCC-2998 colon): 792 nM
TGI (HCC-2998 colon): 2210 nM
GI50 (HCT-116 colon): 149 nM
TGI (HCT-116 colon): 1280 nM
GI50 (HCT-15 colon): 372 nM
TGI (HCT-15 colon): 1520 nM
GI50 (HL-60(TB) leukemia): 357 nM
TGI (HL-60(TB) leukemia): 1180 nM
GI50 (HOP-62 NSCLC): 471 nM
TGI (HOP-62 NSCLC): 2400 nM
GI50 (HOP-92 NSCLC): 243 nM
TGI (HOP-92 NSCLC): 1710 nM
GI50 (HS 578T breast): 99.4 nM
TGI (HS 578T breast): 1150 nM
GI50 (HT29 colon): 280 nM
TGI (HT29 colon): 3830 nM
GI50 (IGROV1 ovarian): 76.4 nM
TGI (IGROV1 ovarian): 1240 nM
GI50 (K-562 leukemia): 43.5 nM
TGI (K-562 leukemia): 2060 nM
GI50 (KM12 colon): 25.1 nM
TGI (KM12 colon): 1560 nM
GI50 (LOX IMVI melanoma): 298 nM
TGI (LOX IMVI melanoma): 1430 nM
GI50 (M14 melanoma): 451 nM
TGI (M14 melanoma): 1900 nM
GI50 (MALME-3M melanoma): 859 nM
TGI (MALME-3M melanoma): 2290 nM
GI50 (MCF7 breast): 485 nM
TGI (MCF7 breast): 2070 nM
GI50 (MDA-MB-231 breast): 160 nM
TGI (MDA-MB-231 breast): 715 nM
GI50 (MDA-MB-435): 1070 nM
TGI (MDA-MB-435): 2300 nM
GI50 (MOLT-4 leukemia): 274 nM
TGI (MOLT-4 leukemia): 2160 nM
GI50 (NCI-H226 lung): 1100 nM
TGI (NCI-H226 lung): 2830 nM
GI50 (NCI-H23 lung): 583 nM
TGI (NCI-H23 lung): 2420 nM
GI50 (NCI-H460 lung): 448 nM
TGI (NCI-H460 lung): 1890 nM
GI50 (NCI-H522 lung): 1220 nM
TGI (NCI-H522 lung): 3020 nM
GI50 (OVCAR-3 ovarian): 550 nM
TGI (OVCAR-3 ovarian): 2020 nM
GI50 (OVCAR-4 ovarian): 1020 nM
TGI (OVCAR-4 ovarian): 2480 nM
GI50 (OVCAR-5 ovarian): 1510 nM
TGI (OVCAR-5 ovarian): 3220 nM
GI50 (OVCAR-8 ovarian): 622 nM
TGI (OVCAR-8 ovarian): 3170 nM
GI50 (PC-3 prostate): 494 nM
TGI (PC-3 prostate): 2170 nM
GI50 (RPMI-8226 leukemia): 385 nM
TGI (RPMI-8226 leukemia): 1790 nM
GI50 (RXF 393 renal): 224 nM
TGI (RXF 393 renal): 652 nM
GI50 (SF-268 CNS): 387 nM
TGI (SF-268 CNS): 2000 nM
GI50 (SF-295 CNS): 1190 nM
TGI (SF-295 CNS): 2470 nM
GI50 (SF-539 CNS): 318 nM
TGI (SF-539 CNS): 1160 nM
GI50 (SK-MEL-2 melanoma): 898 nM
TGI (SK-MEL-2 melanoma): 2720 nM
GI50 (SK-MEL-28 melanoma): 1150 nM
TGI (SK-MEL-28 melanoma): 2520 nM
GI50 (SK-MEL-5 melanoma): 541 nM
TGI (SK-MEL-5 melanoma): 1800 nM
GI50 (SK-OV-3 ovarian): 308 nM
TGI (SK-OV-3 ovarian): 1340 nM
GI50 (SN12C renal): 97.7 nM
TGI (SN12C renal): 1600 nM
GI50 (SNB-19 CNS): 921 nM
TGI (SNB-19 CNS): 2330 nM
GI50 (SNB-75 CNS): 101 nM
TGI (SNB-75 CNS): 1540 nM
GI50 (SR leukemia): 44.3 nM
TGI (SR leukemia): 721 nM
GI50 (SW-620 colon): 369 nM
TGI (SW-620 colon): 1620 nM
GI50 (T-47D breast): 1200 nM
TGI (T-47D breast): 3600 nM
GI50 (TK-10 renal): 561 nM
TGI (TK-10 renal): 2520 nM
GI50 (U251 CNS): 622 nM
TGI (U251 CNS): 2400 nM
GI50 (UACC-257 melanoma): 1540 nM
TGI (UACC-257 melanoma): 3570 nM
GI50 (UACC-62 melanoma): 1320 nM
TGI (UACC-62 melanoma): 3010 nM
GI50 (UO-31 renal): 278 nM
TGI (UO-31 renal): 1310 nM

Reference: PubChem BioAssay (NCI)
